What all share (type): cell-based
One test deals with IL-6 (THP-1 cells). Kind of test: IL-6 inhibition in LPS-stimulated THP-1 monocytes (HTRF). As to conditions: Homo sapiens, IL-6 HTRF; for EC50: 500 ng/mL LPS, Table 6; for inhibition at 10 µM: LPS, Table 6, read-out: percent inhibition at 10 μM (given in parentheses for EC50 >10 μM). The gist of the method:
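THP-1 cells in 1% FBS pre-incubated 2 h with compound (10-point 1:3 series from 10 μM, 0.1% DMSO), then stimulated with 500 ng/mL LPS for 22 h at 37 °C. IL-6 measured by HTRF 665/620 ratio, normalized to DMSO; EC50 by four-parameter fit, or % inhibition at 10 μM when EC50 >10 μM.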
In general terms: In TR-FRET formats the signal depends on donor and acceptor labels being close together.

In the next test the test system is SW480 colon cancer cells. Kind of test: Cell viability assay (CellTiter-Blue) in SW480 cells. The settings on record: Homo sapiens, 96 h, four days; for EC50: CellTiter-Blue, 10 μM to 0.0045 μM; for inhibition at 10 µM: read-out: percent inhibition at 10 μM (given for EC50 of >10 μM). The method in brief: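 SW480 colon cancer cells (~2×10^3/well) exposed to 8-point 1:3 dilutions from 10 μM to 0.0045 μM for four days at 37 °C/5% CO2. Viability read by resazurin (CellTiter-Blue) fluorescence after ~3 h, Ex 560/Em 590 nm. EC50 from non-linear regression; percent inhibition at 10 μM given when EC50 >10 μM.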

The test system of test [1] is Wnt activity (Sp5-Luc reporter, Wnt-responsive promoter) in SW480 colon carcinoma cells. Kind of test: Wnt activity screening assay: Sp5-Luc reporter gene assay in SW480 cells. The settings on record: Homo sapiens, overnight incubation, 10-point curve starting from 10 μM. The method in brief: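 SW480 cells stably transduced with an Sp5 promoter (eight TCF/LEF sites)–firefly luciferase lentiviral reporter, plated at 4,000 cells/well in 1% FBS medium with compounds (10-point 1:3 series from 10 μM, 0.1% DMSO) overnight at 37 °C. BrightGlo luminescence normalised to DMSO; EC50 by four-parameter fit, else % inhibition at 10 μM.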
(A reporter such as luciferase makes a cellular process visible.)

The structures appear in SMILES notation. Bounds are passed on as bounds.

One may read the EC50 as the concentration that produces a half-maximal response. Read a high EC50 as lower potency in that assay. In the case of `O=C(Nc1cncc(-c2ccc3[nH]nc(-c4nc5ccccc5[nH]4)c3n2)c1)C1CCCCC1` [Compound 275, N-(5-(3-(1H-Benzo[d]imidazol-2-yl)-1H-pyrazolo[4,3-b]pyridin-5-yl)pyridin-3-yl) cyclohexanecarboxamide], the 50% effective concentration (EC50) was 1.84 µM in the test with IL-6 (THP-1 cells), 0.593 µM in the test on SW480 colon cancer cells and 1.98 µM in test [1].
As a reminder, the inhibition is how much of the control response was suppressed. `O=C(Nc1cncc(-c2ccc3[nH]nc(-c4nc5c(N6CCCCC6)cccc5[nH]4)c3n2)c1)C1CC1` [Compound 188, N-(5-(3-(4-(Piperidin-1-yl)-1H-benzo[d]imidazol-2-yl)-1H-pyrazolo[4,3-b]pyridin-5-yl)pyridin-3-yl)cyclopropanecarboxamide]: the concentration giving a half-maximal response (EC50) in the test on IL-6 (THP-1 cells) is more than 10 µM; in the test on SW480 colon cancer cells, 4.54 µM; in test [1], 3.73 µM. In addition, the inhibition at 10 µM with IL-6 (THP-1 cells) amounted to 0%.
Consider `CN1CCN(c2cccc3[nH]c(-c4n[nH]c5ccc(-c6cncc(NC(=O)C7CCCC7)c6)nc45)nc23)CC1` [Compound 246, N-(5-(3-(4-(4-Methylpiperazin-1-yl)-1H-benzo[d]imidazol-2-yl)-1H-pyrazolo [4,3-b]pyridin-5-yl)pyridin-3-yl)cyclopentanecarboxamide], for which the EC50 with IL-6 (THP-1 cells) is more than 10 µM; with SW480 colon cancer cells, 8.36 µM; in test [1], 8.53 µM. Also, the inhibition at 10 µM in the test with IL-6 (THP-1 cells) amounted to 35.7%.
In the case of `Fc1cccc(-c2cccc3[nH]c(-c4n[nH]c5ccc(C6CCNCC6)nc45)nc23)c1` [Compound 505, 3-(4-(3-Fluorophenyl)-1H-benzo[d]imidazol-2-yl)-5-(piperidin-4-yl)-1H-pyrazolo[4,3-b]pyridine], the half-maximal effective concentration (EC50) in the test on IL-6 (THP-1 cells) amounted to 4.92 µM; in the test on SW480 colon cancer cells it was 1.46 µM; in test [1], 3.2 µM.
Consider `CN(C)CCNc1cc(F)cc(-c2cccc3[nH]c(-c4n[nH]c5ccc(-c6cncc(CNCC7CCCC7)c6)nc45)nc23)c1` [Compound 473, N^1-(3-(2-(5-(5-(((Cyclopentylmethyl)amino)methyl)pyridin-3-yl)-1H-pyrazolo[4,3-b]pyridin-3-yl)-1H-benzo[d]imidazol-4-yl)-5-fluorophenyl)-N^2,N^2-dimethylethane-1,2-diamine], for which the concentration for a half-maximal effect (EC50) was found to be 4.26 µM in the test on IL-6 (THP-1 cells), 2.74 µM with SW480 colon cancer cells and 2.82 µM in test [1].
The like results for `Cc1cn(-c2cccc3[nH]c(-c4n[nH]c5ccc(-c6cncc(NC(=O)C(C)(C)C)c6)nc45)nc23)cn1` [Compound 204, N-(5-(3-(4-(4-Methyl-1H-imidazol-1-yl)-1H-benzo[d]imidazol-2-yl)-1H-pyrazolo[4,3-b]pyridin-5-yl)pyridin-3-yl)pivalamide] were, in that order, 6.38 µM, 1.51 µM and 1.24 µM.
The like results for `CCNCc1cncc(-c2ccc3[nH]nc(-c4nc5c(-c6cc(F)cc(NCCN(C)C)c6)cccc5[nH]4)c3n2)c1` [Compound 454, N^1-(3-(2-(5-(5-((Ethylamino)methyl)pyridin-3-yl)-1H-pyrazolo[4,3-b]pyridin-3-yl)-1H-benzo[d]imidazol-4-yl)-5-fluorophenyl)-N^2,N^2-dimethylethane-1,2-diamine] were, in that order, 0.628 µM, 1.48 µM and 3.37 µM.
For the compound `FC1(F)CCN(Cc2cncc(-c3ccc4[nH]nc(-c5nc6c(N7CCCCC7)cccc6[nH]5)c4n3)c2)C1` [Compound 194, 5-(5-((3,3-Difluoropyrrolidin-1-yl)methyl)pyridin-3-yl)-3-(4-(piperidin-1-yl)-1H-benzo[d]imidazol-2-yl)-1H-pyrazolo[4,3-b]pyridine], the values for the EC50 (in the test with IL-6 (THP-1 cells); in the test on SW480 colon cancer cells; in test [1]) were more than 10 µM, more than 10 µM and 3.91 µM, respectively. Besides, the figures for the inhibition at 10 µM in the test on IL-6 (THP-1 cells) and with SW480 colon cancer cells were 46.9% and 25.4%, respectively.
In the case of `CC(C)Nc1cncc(-c2ccc3[nH]nc(-c4nc5c(-c6cc(F)cc(NCCN(C)C)c6)cccc5[nH]4)c3n2)c1` [Compound 460, N^1-(3-Fluoro-5-(2-(5-(5-(isopropylamino)pyridin-3-yl)-1H-pyrazolo[4,3-b]pyridin-3-yl)-1H-benzo[d]imidazol-4-yl)phenyl)-N^2,N^2-dimethylethane-1,2-diamine], the half-maximal effective concentration (EC50) with IL-6 (THP-1 cells) is 0.975 µM; in the test with SW480 colon cancer cells, 0.508 µM; in test [1], 1.05 µM.
Turning to `CCNCc1cncc(-c2ccc3[nH]nc(-c4nc5c(-c6ccoc6)cccc5[nH]4)c3n2)c1` [Compound 314, N-((5-(3-(4-(Furan-3-yl)-1H-benzo[d]imidazol-2-yl)-1H-pyrazolo[4,3-b]pyridin-5-yl)pyridin-3-yl)methyl)ethanamine], the EC50 in the test with IL-6 (THP-1 cells) was more than 10 µM; in the test with SW480 colon cancer cells, 0.584 µM; in test [1], 3.25 µM. The inhibition at 10 µM in the test on IL-6 (THP-1 cells) worked out at 15.6%.
On to `CC(C)(C)CC(=O)Nc1cncc(-c2ccc3[nH]nc(-c4nc5ccccc5[nH]4)c3n2)c1` [Compound 268, N-(5-(3-(1H-Benzo[d]imidazol-2-yl)-1H-pyrazolo[4,3-b]pyridin-5-yl)pyridin-3-yl)-3,3-dimethylbutanamide], for which the results for the EC50 (in the test on IL-6 (THP-1 cells); in the test with SW480 colon cancer cells; in test [1]) were 2.5 µM, 6.95 µM and 3.55 µM, respectively.
For `CN(C)CCNc1cc(F)cc(-c2cccc3[nH]c(-c4n[nH]c5ccc(-c6ccccn6)nc45)nc23)c1` [Compound 476, N^1-(3-Fluoro-5-(2-(5-(pyridin-2-yl)-1H-pyrazolo[4,3-b]pyridin-3-yl)-1H-benzo[d]imidazol-4-yl)phenyl)-N^2,N^2-dimethylethane-1,2diamine], the concentration giving a half-maximal response (EC50) amounted to 8.75 µM with IL-6 (THP-1 cells), 1.44 µM in the test with SW480 colon cancer cells and 1.49 µM in test [1].
Turning to `NC1CN(c2cncc(-c3ccc4[nH]nc(-c5nc6c(-c7cccc(F)c7)cccc6[nH]5)c4n3)n2)C1` [Compound 510, 1-(6-(3-(4-(3-Fluorophenyl)-1H-benzo[d]imidazol-2-yl)-1H-pyrazolo[4,3-b]pyridin-5-yl)pyrazin-2-yl)azetidin-3-amine], the EC50 worked out at 7.84 µM in the test with IL-6 (THP-1 cells), 0.952 µM with SW480 colon cancer cells and 3.23 µM in test [1].
Consider `CCC(=O)Nc1cncc(-c2ccc3[nH]nc(-c4nc5c(-c6cccc(F)c6)cccc5[nH]4)c3n2)c1` [Compound 1, N-(5-(3-(4-(3-Fluorophenyl)-1H-benzo[d]imidazol-2-yl)-1H-pyrazolo[4,3-b]pyridin-5-yl)pyridin-3-yl)propionamide], for which the values for the EC50 (in the test on IL-6 (THP-1 cells); with SW480 colon cancer cells; in test [1]) were more than 10 µM, 2.74 µM and 1.36 µM, respectively. Moreover, the inhibition at 10 µM in the test with IL-6 (THP-1 cells) was 49.2%.
Take `Cc1cn(-c2cccc3[nH]c(-c4n[nH]c5ccc(-c6cncc(CN7CCCC7)c6)nc45)nc23)cn1` [Compound 210, 3-(4-(4-Methyl-1H-imidazol-1-yl)-1H-benzo[d]imidazol-2-yl)-5-(5-(pyrrolidin-1-ylmethyl)pyridin-3-yl)-1H-pyrazolo[4,3-b]pyridine]: the EC50 with IL-6 (THP-1 cells) was more than 10 µM; in the test with SW480 colon cancer cells it was 8.47 µM; in test [1], 4.11 µM. Moreover, the inhibition at 10 µM with IL-6 (THP-1 cells) was found to be 33.2%.
In the case of `CC(C)CC(=O)Nc1cncc(-c2ccc3[nH]nc(-c4nc5c(-c6cccc(F)c6)cccc5[nH]4)c3n2)c1` [Compound 2, N-(5-(3-(4-(3-Fluorophenyl)-1H-benzo[d]imidazol-2-yl)-1H-pyrazolo[4,3-b]pyridin-5-yl)pyridin-3-yl)-3-methylbutanamide], the values for the EC50 (in the test with IL-6 (THP-1 cells); in the test with SW480 colon cancer cells; in test [1]) were 6.69 µM, more than 10 µM and 1.16 µM, respectively. The inhibition at 10 µM in the test with SW480 colon cancer cells is 14.2%.
